Source: patent US12201626B2, “Bifunctional compositions for the treatment of cancer” (ARMACEUTICA, INC., priority 2018, dated 2025)
Read-outs that look alike come from different tables or passages of the source. Where a SMILES comes first, the peptide text is derived from it. The star is where a group is joined. Cbz = O=C(OCc1ccccc1)*

Tests used:
[1] = system: MDA-MB-231 breast cancer line; assay: cells; format: cell-based, human
Method: PND was added to cultures of the MDA-MB-231 breast cancer line 24 hours after the cells were treated with a selection of known commercial chemotherapeutic drugs, before the cells were analyzed for cell death. Each of the drugs are known to have serious side-effects at the does commonly administered for the treatment of cancer. The dose of the chemotherapeutic drugs was reduced to one half, one fourth, one eighth, and one sixteenth of the initial dose; while the dose of PND was kept the same. The effect of these combinational therapies was measured by the concentration of each compound needed to be cytotoxic to at least 50 percent of cancer cells (CC50).

[2] = system: HL-60 cells; assay: Phosphatidylserine externalization, annexin V-FITC/PI flow cytometry; format: cell-based, human; settings: positive control, 24 h
Method: (§1) To determine whether cell death induced by PND was occurring through apoptosis or necrosis, MDA-MB-231 and HL-60 cells were stained with annexin V-FITC and PI and monitored via flow cytometry. Cells were seeded in 24-well plates at a density of 100,000 for adherent MDA-MB-231 and 200,000 HL-60 cells in 1 ml of culture media. After overnight incubation, cells were treated with PND, and incubated for an additional 24 h. For MDA-MB-231 cells, unattached cells were harvested in an ice-cold tube, while adhered cells were detached by using HyQtase (Thermo Fisher) and incubated for around 5 min at 37° C. Both unattached and detached cells harvested from each individual well were washed with ice-cold PBS and centrifuged at 260×g for 5 min. HL-60 were centrifuged directly after the incubation period as they grow in suspension. Cells were then stained with a mixture of annexin V-FITC and PI in 100 μl of binding buffer and incubated on ice in the dark for 15 minutes, following the manufacturer's instructions (Beckman Coulter). Lastly, the cells were resuspended by the addition of 400 μl of ice-cold binding buffer and analysed by flow cytometry (Cytomics FC500; Beckman Coulter). For this series of experiments, cells treated with PBS, as solvent control; treated with H2O2, as a positive control of cytotoxicity; and untreated were included and processed in parallel. For each sample, 10,000 events/cells were collected and analysed using CXP software (Beckman Coulter). Both the experimental samples and their controls were processed similarly and assessed in triplicate. The sum of both early and late stages of apoptosis was calculated to obtain the total percentage of apoptotic cells.

[3] = system: MDA-MB-231 cells; assay: as above; format: cell-based, human; settings: positive control, 24 h
Method: as §1

[4] = system: plasmid dsDNA (pCMV-dR8.91); assay: DNA mobility-shift assay (agarose gel); format: binding; parameters: DNA mobility shift: unit of the concentration uncertain
Method: Typically, an experimental compound intercalating or binding to double stranded (ds) DNA will increase the molecular mass resulting from forming complexes, decreasing its electrophoretic mobility in an agarose gel, as compared with untreated dsDNA. To explore the potential interaction between PND and dsDNA, a DNA mobility-shift assay was conducted. Each reaction mixture was of 10 μl total volume in PBS pH 7.4. Both PND (Sigma-Aldrich) and quinacrine (Sigma-Aldrich) were tested with three individual concentrations of 1 μM, 0.5 μM or 0.25 μM, respectively. To each reaction mixture, 100 ng of plasmid dsDNA (pCMV-dR8.91; Addgene, Cambridge, MA) was added and the mixture was then incubated for 30 min at 37° C. and stopped by adding 2 μl of 6× gel loading buffer and placed on ice. The potential binding interaction between both PND and quinacrine with dsDNA were analyzed by using 1% (w/v) agarose-gel electrophoresis dissolved in TAE buffer (0.04 M Tris base, 0.04 M acetate and 0.001 M EDTA) pH 8.0. To stain the dsDNA complexes, Ethidium bromide was added to the agarose gel throughout the electrophoresis process at a concentration of 0.5 μg/ml. DNA migration was visualized by utilizing a gel documentation system and pictures were captured by using a UV-light transilluminator (Alpha Innotech, San Leandro, CA). The well-known DNA intercalator fluorescent compound, propidium iodide (PI), was included as positive controls at 1 μg per reaction. As a control, untreated plasmid DNA was included to determine its normal electrophoretic mobility in the gel.

[5] = Homo sapiens, MDA-MB-231, read-out: initial dose (CC50)

Nc1ccn([C@@H]2O[C@H](CO)[C@@H](O)C2(F)F)c(=O)n1 [gemcitabin]
CC50 [1, 5]: 440 nM

CC(C)C[C@@H](C=O)NC(=O)[C@H](CC(C)C)NC(=O)[C@H](CC(C)C)NC(=O)OCc1ccccc1 [MG132] (Cbz-Leu-Leu-Leu-aldehyde)
CC50 [1, 5]: 500 nM

N.N.[Cl][Pt][Cl] [cisplatin]
CC50 [1]: 95400 nM

CC(C)C[C@H](NC(=O)[C@H](Cc1ccccc1)NC(=O)c1cnccn1)B(O)O [bortezomib]
CC50 [1, 5]: 10 nM

OO [H2O2, hydrogen peroxide]
mode of cytotoxic effect (apoptosis or necrosis) [2]: necrosis
mode of cytotoxic effect (apoptosis or necrosis) [3]: apoptosis

CCN(CC)CCCC(C)Nc1c2ccc(Cl)cc2nc2ccc(OC)cc12 (stereo not shown) [quinacrine]
DNA mobility shift ([4]; 0.5 and 0.25 mM, 100 ng plasmid DNA): clear retardation mobility of the DNA
DNA mobility shift ([4]; 1 (unit uncertain), 100 ng plasmid DNA, 30 min 37° C.): maximum retardation of DNA mobility
DNA degradation ([4]; fragments smaller than free supercoiled DNA): did not exhibit any DNA degradation activity

CC[N+](C)(CC)CCC[n+]1c(-c2ccccc2)c2cc(N)ccc2c2ccc(N)cc21.[I-].[I-] [PI, propidium iodide]
DNA mobility shift ([4]; positive control, 1 μg per reaction): provoked retardation of the DNA mobility
